In patent US20240270762A1, “PENICILLIN-BINDING PROTEIN INHIBITORS” (priority 2021, published 2024):
Converted amounts (≈) assume the structure as drawn.

Legend:
[1] = tested on: A. baumannii CDC-0036; assay: microbe, parasite or virus in culture; assay type: cell-based; conditions: Acinetobacter baumannii, CDC0036, read-out: MIC, A. baumannii CDC-0036
[2] = tested on: N. gonorrhoeae FA1090; assay: Liquid broth MIC in Fastidious broth; conditions: Neisseria gonorrhoeae, FA1090, read-out: Minimum Inhibitory Concentration (MIC), N. gonorrhoeae FA 1090
[3] = tested on: P. aeruginosa (ΔmexAB-oprM); assay: Broth microdilution MIC in iron-depleted CAMHB (IDM); assay type: cell-based; conditions: Pseudomonas aeruginosa; iron-depleted CAMHB (IDM); […]; read-out: Minimum inhibitory concentration, P. aeruginosa ΔmexAB-oprM
[4] = tested on: P. aeruginosa ATCC 35151; assay: microbe, parasite or virus in culture; assay type: cell-based; conditions: Pseudomonas aeruginosa, ATCC35151, read-out: Minimum inhibitory concentration, P. aeruginosa ATCC 35151
[5] = tested on: A. baumannii ATCC 19606; assay: microbe, parasite or virus in culture; assay type: cell-based; conditions: Acinetobacter baumannii, ATCC19606, read-out: MIC, A. baumannii ATCC 19606
[6] = tested on: N. gonorrhoeae WHO K; assay: Liquid broth MIC in Fastidious broth; conditions: Neisseria gonorrhoeae, read-out: Minimum Inhibitory Concentration (MIC), N. gonorrhoeae WHO K
Experimental: Liquid broth-based assays were used for antibacterial testing of PBP inhibitors in Neisseria gonorrhoeae. Briefly, cryo-preserved bacterial cultures of clinical strains were streaked for isolation on Chocolate Agar (72 g/L (2×) GC Agar Base (BD #228950) and 2% (2×) Hemoglobin was autoclaved at 121° C. for 20 minutes to sterilize. Once cooled to ˜50° C. the 2×GC Agar Base and 2× Hemoglobin solutions are combined and 1% IsoVitaleX Enrichment (BD #211876) was added to the solution). Strains were incubated at 36° C. and 5% CO2 to allow growth of colonies, 24 hours before inoculum preparation. 2-fold serial dilutions of test compounds were conducted in a 96 well plate with a final volume of 75 μL per well at 2-fold the final desired concentration in Fastidious broth (Remel #R07664). For preparation of assay inoculum, a direct suspension was prepared by aseptically swabbing 10-15 colonies from agar plates into culture tubes containing 2 mL of fresh sterile saline. After the dilution plates were set up, direct suspensions were then diluted in a cuvette containing sterile saline and the optical density was measured at 600 nm. Inocula were diluted such that 75 μL of this culture in Fastidious broth results in a starting bacterial concentration of 5×10^5 CFU/mL when added to the dilution plates. The plates were incubated for ˜24 hours at 36° C. and 5% CO2.

[7] = tested on: N. gonorrhoeae WHO Q; assay: Liquid broth MIC in Fastidious broth; conditions: Neisseria gonorrhoeae, read-out: Minimum Inhibitory Concentration (MIC), N. gonorrhoeae WHO Q
[8] = tested on: N. gonorrhoeae WHO Z; assay: Liquid broth MIC in Fastidious broth; conditions: Neisseria gonorrhoeae, read-out: Minimum Inhibitory Concentration (MIC), N. gonorrhoeae WHO Z
[9] = tested on: N. gonorrhoeae MS11; assay: Liquid broth MIC in Fastidious broth; conditions: Neisseria gonorrhoeae, MS11, read-out: Minimum Inhibitory Concentration (MIC), N. gonorrhoeae MS11
[10] = tested on: A. baumannii CDC-0045; assay: microbe, parasite or virus in culture; assay type: cell-based; conditions: Acinetobacter baumannii, CDC0045, read-out: MIC, A. baumannii CDC-0045
[11] = tested on: N. gonorrhoeae WHO M; assay: Liquid broth MIC in Fastidious broth; conditions: Neisseria gonorrhoeae, read-out: Minimum Inhibitory Concentration (MIC), N. gonorrhoeae WHO M
[12] = tested on: N. gonorrhoeae WHO L; assay: Liquid broth MIC in Fastidious broth; conditions: Neisseria gonorrhoeae, read-out: Minimum Inhibitory Concentration (MIC), N. gonorrhoeae WHO L
[13] = tested on: A. baumannii 1258916; assay: microbe, parasite or virus in culture; assay type: cell-based, Acinetobacter baumannii; conditions: Acinetobacter baumannii, 1258916, read-out: MIC, A. baumannii 1258916

SMILES | MIC [1] [µg/mL] | MIC [2] [µg/mL] | MIC [3] [µg/mL] | MIC [4] [µg/mL] | MIC [5] [µg/mL] | MIC [6] [µg/mL] | MIC [7] [µg/mL] | MIC [8] [µg/mL] | MIC [9] [µg/mL] | MIC [10] [µg/mL] | MIC [11] [µg/mL] | MIC [12] [µg/mL] | MIC [13] [µg/mL]
CN(CCN1CCN(C(=O)N[C@@H](C(=O)N[C@H]2Cc3ccc(F)c(C(=O)O)c3OB2O)c2cc(F)c(O)c(O)c2Cl)C(=O)C1=O)Cc1ccc(C(N)=O)cc1 [Example 226, (R)-3-((R)-2-(4-(2-((4-carbamoylbenzyl)(methyl)amino)ethyl)-2,3-dioxopiperazine-1-carboxamido)-2-(2-chloro-5-fluoro-3,4-dihydroxyphenyl)acetamido)-7-fluoro-2-hydroxy-3,4-dihydro-2H-benzo[e][1,2]oxaborinine-8-carboxylic acid] | 2 to 4 (≈ 2.59 to 5.18 µM) | 1 to 2 (≈ 1.29 to 2.59 µM) | < 1 | < 1 | < 1 | > 64 | > 64 | 16 to 32 (≈ 20.7 to 41.4 µM) | 16 to 32 (≈ 20.7 to 41.4 µM) | < 1 | 16 to 32 (≈ 20.7 to 41.4 µM) | > 64 | < 1
O=C(NCCCN1CCN(C(=O)NC(C(=O)N[C@H]2Cc3ccc(F)c(C(=O)O)c3OB2O)c2cc(F)c(O)c(O)c2Cl)C(=O)C1=O)Nc1ccc(O)cc1 (stereo partly drawn) [Example 227, (3R)-3-(2-(2-chloro-5-fluoro-3,4-dihydroxyphenyl)-2-(4-(3-(3-(4-hydroxyphenyl)ureido)propyl)-2,3-dioxopiperazine-1-carboxamido)acetamido)-7-fluoro-2-hydroxy-3,4-dihydro-2H-benzo[e][1,2]oxaborinine-8-carboxylic acid] | 2 to 4 (≈ 2.58 to 5.16 µM) | 1 to 2 (≈ 1.29 to 2.58 µM) | < 1 | < 1 | < 1 | > 64 | > 64 | 16 to 32 (≈ 20.6 to 41.3 µM) | 16 to 32 (≈ 20.6 to 41.3 µM) | < 1 | 4 to 8 (≈ 5.16 to 10.3 µM) | > 64 | < 1
O=C(NCCCN1CCN(C(=O)NC(C(=O)N[C@H]2Cc3ccc(F)c(C(=O)O)c3OB2O)c2cc(F)c(O)c(O)c2Cl)C(=O)C1=O)Nc1ccncc1 (stereo partly drawn) [Example 228, (3R)-3-(2-(2-chloro-5-fluoro-3,4-dihydroxyphenyl)-2-(2,3-dioxo-4-(3-(3-(pyridin-4-yl)ureido)propyl)piperazine-1-carboxamido)acetamido)-7-fluoro-2-hydroxy-3,4-dihydro-2H-benzo[e][1,2]oxaborinine-8-carboxylic acid] | 2 to 4 (≈ 2.63 to 5.26 µM) | 1 to 2 (≈ 1.32 to 2.63 µM) | < 1 | < 1 | < 1 | > 64 | > 64 | > 64 | > 64 | < 1 | 16 to 32 (≈ 21.1 to 42.1 µM) | > 64 | < 1
O=C(O)c1c(F)ccc2c1OB(O)[C@@H](NC(=O)[C@H](NC(=O)N1CCN(CCNC(=O)[C@@H]3CCCN3)C(=O)C1=O)c1cc(F)c(O)c(O)c1Cl)C2 [Example 229, (R)-3-((R)-2-(2-chloro-5-fluoro-3,4-dihydroxyphenyl)-2-(2,3-dioxo-4-(2-((S)-pyrrolidine-2-carboxamido)ethyl)piperazine-1-carboxamido)acetamido)-7-fluoro-2-hydroxy-3,4-dihydro-2H-benzo[e][1,2]oxaborinine-8-carboxylic acid] | 2 to 4 (≈ 2.77 to 5.53 µM) | 4 to 8 (≈ 5.53 to 11.1 µM) | < 1 | < 1 | < 1 | 16 to 32 (≈ 22.1 to 44.3 µM) | 16 to 32 (≈ 22.1 to 44.3 µM) | 16 to 32 (≈ 22.1 to 44.3 µM) | 16 to 32 (≈ 22.1 to 44.3 µM) | < 1 | 4 to 8 (≈ 5.53 to 11.1 µM) | > 64 | 2 to 4 (≈ 2.77 to 5.53 µM)
O=C(CN1CCN(C(=O)NC(C(=O)N[C@H]2Cc3ccc(F)c(C(=O)O)c3OB2O)c2cc(F)c(O)c(O)c2Cl)C(=O)C1=O)Nc1ccc(O)cc1 (stereo partly drawn) [Example 230, (3R)-3-(2-(2-chloro-5-fluoro-3,4-dihydroxyphenyl)-2-(4-(2-((4-hydroxyphenyl)amino)-2-oxoethyl)-2,3-dioxopiperazine-1-carboxamido)acetamido)-7-fluoro-2-hydroxy-3,4-dihydro-2H-benzo[e][1,2]oxaborinine-8-carboxylic acid] | 2 to 4 (≈ 2.73 to 5.47 µM) | 1 to 2 (≈ 1.37 to 2.73 µM) | < 1 | < 1 | < 1 | 16 to 32 (≈ 21.9 to 43.7 µM) | 16 to 32 (≈ 21.9 to 43.7 µM) | 4 to 8 (≈ 5.47 to 10.9 µM) | 4 to 8 (≈ 5.47 to 10.9 µM) | < 1 | 4 to 8 (≈ 5.47 to 10.9 µM) | 16 to 32 (≈ 21.9 to 43.7 µM) | 2 to 4 (≈ 2.73 to 5.47 µM)
